The text below walks through data of patent US8119805B2, “Substituted disulfonamide compounds” (Gruenenthal GmbH, priority 2008, dated 2012).

The inhibition is the change of the read-out against control, counted positive when it falls.

Counter-ions that a name gives are not always drawn.

For assay [1], the target named is T1, human B1R receptor (hB1R) (Homo sapiens, UniProt P46663).
T1 construct: expressed in transfected cells; host or cells: CHO K1 cells
T1 sequence (P46663 1-353): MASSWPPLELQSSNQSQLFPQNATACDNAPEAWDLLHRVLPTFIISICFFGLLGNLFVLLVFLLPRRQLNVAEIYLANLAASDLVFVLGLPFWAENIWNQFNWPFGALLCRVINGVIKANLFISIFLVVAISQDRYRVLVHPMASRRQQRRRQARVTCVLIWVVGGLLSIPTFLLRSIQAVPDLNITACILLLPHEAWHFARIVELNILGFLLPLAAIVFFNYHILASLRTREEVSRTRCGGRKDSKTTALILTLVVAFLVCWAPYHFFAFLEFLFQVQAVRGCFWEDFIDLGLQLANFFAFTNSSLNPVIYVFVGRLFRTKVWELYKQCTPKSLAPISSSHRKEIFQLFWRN
Briefly: Functional investigation on the bradykinin 1 receptor (B1R), FLIPR Ca2+ assay, hB1R cells. In kind it is cell-based. Particulars: test substance 10 μM; CHO K1 cells transfected with human B1R gene; Fluo-4 Ca2+ signal; agonist Lys-Des-Arg9-bradykinin at EC80; % of maximum achievable inhibition; read-out: B1R antagonism, human [10 μM] % inhibition. The essentials: (§1)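 CHO K1 cells stably expressing human or rat B1R, Fluo-4 loaded, read by FLIPR (λex 488, λem 540 nm). Test compound (10 μM) first gave % activation against Lys-Des-[MUT]-bradykinin ≥50 nM (hB1R) or Des-[MUT]-bradykinin 10 μM (rB1R). After 10–20 min, agonist at EC80 was added; % inhibition or IC50 from concentration series, n=2–3, N≥2.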

In assay [2] the target is T2, B1R receptor of the rat (rB1R) (Rattus norvegicus, UniProt P97583).
T2 construct: expressed in transfected cells; host or cells: CHO K1 cells
T2 sequence (P97583 1-337): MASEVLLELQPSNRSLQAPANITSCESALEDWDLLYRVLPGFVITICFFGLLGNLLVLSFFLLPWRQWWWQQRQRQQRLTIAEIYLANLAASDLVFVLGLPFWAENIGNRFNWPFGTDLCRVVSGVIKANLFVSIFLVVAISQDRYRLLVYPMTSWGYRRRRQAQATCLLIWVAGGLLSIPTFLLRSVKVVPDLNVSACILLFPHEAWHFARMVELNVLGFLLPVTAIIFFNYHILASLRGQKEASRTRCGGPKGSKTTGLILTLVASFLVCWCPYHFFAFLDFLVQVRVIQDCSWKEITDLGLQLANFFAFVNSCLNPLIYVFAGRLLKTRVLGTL
The assay is described as follows: Functional investigation on the bradykinin 1 receptor (B1R), FLIPR Ca2+ assay, rB1R cells. Type of assay: cell-based. The following applies: test substance 10 μM; CHO K1 cells transfected with rat B1R gene; Fluo-4 Ca2+ signal; agonist Des-Arg9-bradykinin at EC80; % of maximum achievable inhibition; read-out: B1R antagonism, rat [10 μM] % inhibition. Summed up: as §1

As to `O=S(=O)(CCC[C@@H]1CCCN1S(=O)(=O)c1cccc2ccccc12)N1CCC2(CCN(c3ccncc3)CC2)CC1` [Example 67, 3-(3-((S)-1-(Naphthalen-1-ylsulfonyl)pyrrolidin-2-yl)propylsulfonyl)-9-(pyridin-4-yl)-3,9-diazaspiro[5.5]undecane hydrochloride], the inhibition at 10 µM came to 98% in assay [1] and 97% in assay [2].
The like results for `O=S(=O)(CCC[C@@H]1CCCN1S(=O)(=O)c1ccccc1C(F)(F)F)N1CCC2(CCN(c3ccncc3)CC2)CC1` [Example 68, 3-(Pyridin-4-yl)-9-(3-((S)-1-(2-(trifluoromethyl)phenylsulfonyl)pyrrolidin-2-yl)propylsulfonyl)-3,9-diazaspiro[5.5]undecane hydrochloride] were, in that order, 100% and 96%.
Consider `CC1(C)CCc2cc(S(=O)(=O)N3CCC[C@H]3CCCS(=O)(=O)N3CCC(Oc4ccncc4)CC3)ccc2O1` [Example 69, (S)-4-(1-(3-(1-(2,2-Dimethylchroman-6-ylsulfonyl)pyrrolidin-2-yl)propylsulfonyl)piperidin-4-yloxy)pyridine], for which the inhibition at 10 µM is 33% in assay [1] and 12% in assay [2].
The like results for `O=S(=O)(CCC[C@@H]1CCCN1S(=O)(=O)Cc1cccc(Cl)c1)N1CCC(Oc2ccncc2)CC1` [Example 70, (S)-4-(1-(3-(1-(3-Chlorobenzylsulfonyl)pyrrolidin-2-yl)propylsulfonyl)piperidin-4-yloxy)pyridine] were, in that order, 26% and 32%.
As for `O=S(=O)(CCC[C@@H]1CCCN1S(=O)(=O)c1ccc(C(F)(F)F)cc1Cl)N1CCC(Oc2ccncc2)CC1` [Example 71, (S)-4-(1-(3-(1-(2-Chloro-4-(trifluoromethyl)phenylsulfonyl)pyrrolidin-2-yl)propylsulfonyl)piperidin-4-yloxy)pyridine], the inhibition at 10 µM in assay [1] is 30%; in assay [2], 39%.
For `O=S(=O)(CCC[C@@H]1CCCN1S(=O)(=O)c1c(Cl)cc(C(F)(F)F)cc1Cl)N1CCC(Oc2ccncc2)CC1` [Example 72, (S)-4-(1-(3-(1-(2,6-Dichloro-4-(Trifluoromethyl)phenylsulfonyl)pyrrolidin-2-yl)propylsulfonyl)piperidin-4-yloxy)pyridine], the inhibition at 10 µM in assay [1] is 38%; in assay [2], 45%.
With `Cc1cc(F)cc(C)c1S(=O)(=O)N1CCC[C@H]1CCCS(=O)(=O)N1CCC(Oc2ccncc2)CC1` [Example 73, (S)-4-(1-(3-(1-(4-Fluoro-2,6-dimethylphenylsulfonyl)pyrrolidin-2-yl)propylsulfonyl)piperidin-4-yloxy)pyridine], the values for the inhibition at 10 µM in assay [1] and in assay [2] were 89% and 99%, respectively.
For `COc1cc(C)c(S(=O)(=O)N2CCCCC2CCCS(=O)(=O)N2CCC3(CCN(c4ccncc4)CC3)CC2)c(C)c1` (stereo not shown) [Example 74, 3-(3-(1-(4-Methoxy-2,6-dimethylphenylsulfonyl)piperidin-2-yl)propylsulfonyl)-9-(pyridin-4-yl)-3,9-diazaspiro[5.5]undecane], in that order: 99% and 95%.
For `Cc1ccc(S(=O)(=O)N2CCC[C@H]2CCCS(=O)(=O)N2CCC3(CCN(c4ccncc4)CC3)CC2)c2ccccc12` [Example 75, 3-(3-((S)-1-(4-Methylnaphthalen-1-ylsulfonyl)pyrrolidin-2-yl)propylsulfonyl)-9-(pyridin-4-yl)-3,9-diazaspiro[5.5]undecane], in that order: 96% and 100%.
As to `O=S(=O)(CCC[C@@H]1CCCN1S(=O)(=O)c1cccc2c(Cl)cccc12)N1CCC2(CCN(c3ccncc3)CC2)CC1` [Example 76, 3-(3-((S)-1-(5-Chloronaphthalen-1-ylsulfonyl)pyrrolidin-2-yl)propylsulfonyl)-9-(pyridin-4-yl)-3,9-diazaspiro[5.5]undecane], the inhibition at 10 µM in assay [1] and in assay [2] was 95% throughout.
On to `COc1ccc(S(=O)(=O)N2CCC[C@H]2CCCS(=O)(=O)N2CCC3(CCN(c4ccncc4)CC3)CC2)c2ccccc12` [Example 77, 3-(3-((S)-1-(4-Methoxynaphthalen-1-ylsulfonyl)pyrrolidin-2-yl)propylsulfonyl)-9-(pyridin-4-yl)-3,9-diazaspiro[5.5]undecane], for which the inhibition at 10 µM in assay [1] was 81%; in assay [2], 97%.
As for `O=S(=O)(CCC[C@@H]1CCCN1S(=O)(=O)c1ccc(F)c2ccccc12)N1CCC2(CCN(c3ccncc3)CC2)CC1` [Example 78, 3-(3-((S)-1-(4-Fluoronaphthalen-1-ylsulfonyl)pyrrolidin-2-yl)propylsulfonyl)-9-(pyridin-4-yl)-3,9-diazaspiro[5.5]undecane], the inhibition at 10 µM in assay [1] was 91%; in assay [2] it was 93%.
Turning to `O=S(=O)(CCC[C@@H]1CCCN1S(=O)(=O)c1ccc(Cl)c2ccccc12)N1CCC2(CCN(c3ccncc3)CC2)CC1` [Example 79, 3-(3-((S)-1-(4-Chloronaphthalen-1-ylsulfonyl)pyrrolidin-2-yl)propylsulfonyl)-9-(pyridin-4-yl)-3,9-diazaspiro[5.5]undecane], the inhibition at 10 µM came out at 77% in assay [1] and 96% in assay [2].
For `COc1cc(C)c(S(=O)(=O)N2CCC[C@H]2CCCS(=O)(=O)N2CC(N3[C@@H]4CC[C@H]3C[C@H](Oc3ccncc3)C4)C2)c(C)c1` [Example 80, (1R,3s,5S)-8-(1-(3-((S)-1-(4-Methoxy-2,6-ydimethylphenylsulfonyl)pyrrolidin-2-l)propylsulfonyl)azetidin-3-yl)-3-(pyridin-4-yloxy)-8-azabicyclo[3.2.1]octane], in that order: 99% and 102%.
For `Cc1cccc(Cl)c1S(=O)(=O)N1CCC[C@H]1CCCS(=O)(=O)N1CC(N2[C@@H]3CC[C@H]2C[C@H](Oc2ccncc2)C3)C1` [Example 81, (1R,3s,5S)-8-(1-(3-((S)-1-(2-Chloro-6-methylphenylsulfonyl)pyrrolidin-2-yl)propylsulfonyl)azetidin-3-yl)-3-(pyridin-4-yloxy)-8-azabicyclo[3.2.1]octane], in that order: 96% and 98%.
The like results for `COc1cc(C)c(S(=O)(=O)N2CCC[C@H]2CCCS(=O)(=O)N2CCC3(CCN(c4ccncc4)C3)C2)c(C)c1` (stereo partly drawn) [Example 82, 2-(3-((S)-1-(4-Methoxy-2,6-dimethylphenylsulfonyl)pyrrolidin-2-yl)propylsulfonyl)-7-(pyridin-4-yl)-2,7-diazaspiro[4.4]nonane] were, in that order, 100% and 103%.
Consider `Cc1cccc(Cl)c1S(=O)(=O)N1CCC[C@H]1CCCS(=O)(=O)N1CCC2(CCN(c3ccncc3)C2)C1` (stereo partly drawn) [Example 83, 2-(3-((S)-1-(2-Chloro-6-methylphenylsulfonyl)pyrrolidin-2-yl)propylsulfonyl)-7-(pyridin-4-yl)-2,7-diazaspiro[4.4]nonane], for which the inhibition at 10 µM in assay [1] is 99%; in assay [2], 104%.
The like results for `COc1cc(C)c(S(=O)(=O)N2CCC[C@H]2CCCS(=O)(=O)N2CCC3(CCN(c4ccncc4)C3)C2)cc1C` (stereo partly drawn) [Example 84, 2-(3-((S)-1-(4-Methoxy-2,5-dimethylphenylsulfonyl)pyrrolidin-2-yl)propylsulfonyl)-7-(pyridin-4-yl)-2,7-diazaspiro[4.4]nonane] were, in that order, 96% and 82%.
Regarding `COc1cc(C)c(S(=O)(=O)N2CCC[C@H]2CCCS(=O)(=O)N2CCC3(CCN(c4ccncc4)CC3)C2)c(C)c1` [Example 85, (S)-2-(3-(1-(4-Methoxy-2,6-dimethylphenylsulfonyl)pyrrolidin-2-yl)propylsulfonyl)-8-(pyridin-4-yl)-2,8-diazaspiro[4.5]decane], the values for the inhibition at 10 µM in assay [1] and in assay [2] were 99% and 101%, respectively.
`Cc1cccc(Cl)c1S(=O)(=O)N1CCCCC1CCCS(=O)(=O)N1CCC2(CCN(c3ccncc3)CC2)CC1` (stereo not shown) [Example 86, 3-(3-(1-(2-Chloro-6-methylphenylsulfonyl)piperidin-2-yl)propylsulfonyl)-9-(pyridin-4-yl)-3,9-diazaspiro[5.5]undecane]: the inhibition at 10 µM in assay [1] was found to be 99%; in assay [2] it was 101%.
